Reference: US20240190849A1, “AMINOPYRIMIDINE COMPOUNDS AND METHODS OF THEIR USE” (TYRA BIOSCIENCES, INC., priority 2021, published 2024)

Assays:
FGFR1 = target: T1, FGFR1 (Homo sapiens, UniProt P11362); test: Kinase binding assay (kinase-tagged T7 phage, affinity beads, qPCR readout), FGFR1; conditions: FGFR binding data
T1 construct: made in house; host or cells: E. coli derived from BL21, infected with T7 phage
How it was run: (§1)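 First, streptavidin beads were loaded with biotinylated ligand and blocked. Kinase, beads and compound were then shaken together for 1 hour at room temperature in SeaBlock/PBS/Tween/DTT buffer. Finally, eluted kinase was measured by qPCR and Kd fitted with Hill slope −1.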

FGFR2 = target: T2, FGFR2 (Homo sapiens, UniProt P21802); test: Kinase binding assay (kinase-tagged T7 phage, affinity beads, qPCR readout), FGFR2; conditions: FGFR binding data
T2 construct: made in house; host or cells: E. coli derived from BL21, infected with T7 phage
How it was run: as §1

FGFR3 = target: T3, FGFR3 (Homo sapiens, UniProt P22607); test: Kinase binding assay (kinase-tagged T7 phage, affinity beads, qPCR readout), FGFR3; conditions: FGFR binding data
T3 construct: made in house; host or cells: E. coli derived from BL21, infected with T7 phage
How it was run: as §1

FGFR3 (V555M) = target: T4, FGFR3 (V555M) (Homo sapiens, UniProt P22607, V555M); test: Kinase binding assay (kinase-tagged T7 phage, affinity beads, qPCR readout), FGFR3 (V555M); conditions: FGFR binding data
T4 construct: made in house; host or cells: E. coli derived from BL21, infected with T7 phage
How it was run: as §1

[1] = system: RT112/84 (Bladder Cancer), FGFR3-TACC3 fusion; test: Cancer cell viability assay (Cell Titer-Glo), RT112/84; format: cell-based; conditions: Homo sapiens, RT112/84 cells, 72 hours
Description: (§2) RT112/84, UM-UC-14, SNU-16 and KG-1 Cancer Cell Line Cell Viability Assays
(§3) To detect the change of intracellular ATP by Cell Titer-Glo@ and to evaluate the inhibitory effect of the compounds on cancer cell lines by determining the in vitro IC50 value of the compounds.
(§4) Cell Titer-Glo@ 2.0 Luminescent cell viability assay reagent was purchased from Promega (Madison, WI). RT112/84, SNU-16, and KG-1 cell lines were purchased from American Type Culture Collection (Manassas, VA). UM-UC-14 cell line was purchased from Sigma (St. Louis, MO). RT112/84, UM-UC-14, SNU-16, and KG-1 cells were cultured in RPMI1640 media supplemented with 10% fetal bovine serum. Cultures were maintained at 37° C. in a humidified atmosphere of 5% CO2 and 95% air.
(§5) Cell Viability Assay Procedure: Cells were plated in 96-well clear bottom/white plates (Corning #3903) at 10,000 cells/well in 100 μl of media, incubated overnight. The next day, test compound DMSO stock solutions were made at 10 mM and 2 μM final concentration. Compounds were then added to cells in a 9-dose, […] dilution series starting at 30 μM with an HP 300e Digital Dispenser (each dose was applied in triplicate). DMSO was backfilled to each well up to 301 nL total volume of test compound+DMSO, and a total of 301 nL DMSO was added to a control/no test compound well in triplicate. The cells in cell culture plates were incubated with the compounds at 37° C. and 5% CO2 for 72 hours. Then 50 μl of Cell Titer Glo 2.0 reagent was added to each well of the cell culture plates. The contents were covered from light and mixed on an orbital shaker at room temperature for 10 min. Luminescence was recorded by a Synergy H1 Microplate Reader (Biotek, Winooski, VT). Cells were assessed as a percentage of DMSO only treated control cells. Curves were plotted and IC50 values were calculated using the GraphPad Prism 8 program based on a sigmoidal dose-response equation (4 parameter).

[2] = system: UM-UC-14 (Bladder Cancer), FGFR3(S249C); test: Cancer cell viability assay (Cell Titer-Glo), UM-UC-14; format: cell-based; conditions: UMUC14, UM-UC-14 cells, 72 hours
Description: as §2, §3, §4, §5

[3] = system: SNU-16 (Gastric Carcinoma), FGFR2 amplification; test: Cancer cell viability assay (Cell Titer-Glo), SNU-16; format: cell-based; conditions: Homo sapiens, SNU-16 cells, 72 hours, read-out: SNU16 FGFR2 (IC50 nM)
How it was run: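 Cells seeded at 10,000/well in RPMI1640 with 10% FBS, then exposed 72 h at 37° C. to a 9-point 10-fold dilution series from 30 μM, in triplicate. Viability read as ATP luminescence (CellTiter-Glo 2.0) as percent of DMSO control; IC50 from 4-parameter sigmoidal fit.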

[4] = system: KG-1 (Acute Myeloid Leukemia), FGFR1OP2-FGFR1 fusion; test: Cancer cell viability assay (Cell Titer-Glo), KG-1; format: cell-based; conditions: Homo sapiens, KG-1 cells, 72 hours
Description: as §2, §3, §4, §5

T1 sequence (P11362 22-822): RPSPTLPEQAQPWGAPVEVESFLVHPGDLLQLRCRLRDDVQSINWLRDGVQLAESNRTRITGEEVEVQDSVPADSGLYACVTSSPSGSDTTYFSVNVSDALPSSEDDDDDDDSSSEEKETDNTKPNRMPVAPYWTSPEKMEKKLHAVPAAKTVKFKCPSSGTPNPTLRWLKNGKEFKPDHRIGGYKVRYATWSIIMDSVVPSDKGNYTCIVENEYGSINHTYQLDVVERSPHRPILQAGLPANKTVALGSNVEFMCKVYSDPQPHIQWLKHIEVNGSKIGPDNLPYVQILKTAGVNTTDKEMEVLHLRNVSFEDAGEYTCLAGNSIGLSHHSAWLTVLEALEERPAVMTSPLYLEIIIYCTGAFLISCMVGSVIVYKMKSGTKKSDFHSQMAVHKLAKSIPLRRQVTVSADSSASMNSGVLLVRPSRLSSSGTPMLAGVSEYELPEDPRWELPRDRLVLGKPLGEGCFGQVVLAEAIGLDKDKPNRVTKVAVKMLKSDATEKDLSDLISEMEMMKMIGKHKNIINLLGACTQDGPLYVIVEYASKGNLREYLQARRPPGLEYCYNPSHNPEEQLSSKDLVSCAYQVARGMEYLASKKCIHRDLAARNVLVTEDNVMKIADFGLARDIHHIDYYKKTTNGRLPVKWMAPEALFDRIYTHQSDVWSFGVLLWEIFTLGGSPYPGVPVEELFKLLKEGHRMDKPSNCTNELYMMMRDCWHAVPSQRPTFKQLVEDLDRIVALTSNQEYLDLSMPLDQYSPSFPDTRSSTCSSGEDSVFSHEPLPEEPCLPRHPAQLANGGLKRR
T3 sequence (P22607 23-806): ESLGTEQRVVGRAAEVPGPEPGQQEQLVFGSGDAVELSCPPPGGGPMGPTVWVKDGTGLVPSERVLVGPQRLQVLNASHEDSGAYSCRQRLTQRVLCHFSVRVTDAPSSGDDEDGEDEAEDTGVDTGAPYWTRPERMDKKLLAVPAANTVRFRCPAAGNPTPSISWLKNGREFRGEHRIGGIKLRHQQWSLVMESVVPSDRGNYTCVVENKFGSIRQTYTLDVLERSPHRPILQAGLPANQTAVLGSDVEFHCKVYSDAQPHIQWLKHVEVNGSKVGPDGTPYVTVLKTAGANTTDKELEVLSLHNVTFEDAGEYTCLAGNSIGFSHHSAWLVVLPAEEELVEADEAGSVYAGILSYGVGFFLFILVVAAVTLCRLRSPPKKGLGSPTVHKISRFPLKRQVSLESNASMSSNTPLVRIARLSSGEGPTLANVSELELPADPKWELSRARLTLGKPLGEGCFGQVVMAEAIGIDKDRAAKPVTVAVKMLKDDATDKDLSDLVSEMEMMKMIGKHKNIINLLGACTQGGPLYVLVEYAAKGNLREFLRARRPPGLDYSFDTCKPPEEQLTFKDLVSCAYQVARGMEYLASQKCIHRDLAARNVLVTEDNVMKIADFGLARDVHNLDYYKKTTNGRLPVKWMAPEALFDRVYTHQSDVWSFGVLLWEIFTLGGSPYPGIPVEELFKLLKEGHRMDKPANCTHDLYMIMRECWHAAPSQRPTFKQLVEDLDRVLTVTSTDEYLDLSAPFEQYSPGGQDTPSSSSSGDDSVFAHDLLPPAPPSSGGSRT
T4 sequence (P22607 23-806 V555M): as the sequence (P22607 23-806) above, with V533M counted along it
T2 sequence (P21802 22-821): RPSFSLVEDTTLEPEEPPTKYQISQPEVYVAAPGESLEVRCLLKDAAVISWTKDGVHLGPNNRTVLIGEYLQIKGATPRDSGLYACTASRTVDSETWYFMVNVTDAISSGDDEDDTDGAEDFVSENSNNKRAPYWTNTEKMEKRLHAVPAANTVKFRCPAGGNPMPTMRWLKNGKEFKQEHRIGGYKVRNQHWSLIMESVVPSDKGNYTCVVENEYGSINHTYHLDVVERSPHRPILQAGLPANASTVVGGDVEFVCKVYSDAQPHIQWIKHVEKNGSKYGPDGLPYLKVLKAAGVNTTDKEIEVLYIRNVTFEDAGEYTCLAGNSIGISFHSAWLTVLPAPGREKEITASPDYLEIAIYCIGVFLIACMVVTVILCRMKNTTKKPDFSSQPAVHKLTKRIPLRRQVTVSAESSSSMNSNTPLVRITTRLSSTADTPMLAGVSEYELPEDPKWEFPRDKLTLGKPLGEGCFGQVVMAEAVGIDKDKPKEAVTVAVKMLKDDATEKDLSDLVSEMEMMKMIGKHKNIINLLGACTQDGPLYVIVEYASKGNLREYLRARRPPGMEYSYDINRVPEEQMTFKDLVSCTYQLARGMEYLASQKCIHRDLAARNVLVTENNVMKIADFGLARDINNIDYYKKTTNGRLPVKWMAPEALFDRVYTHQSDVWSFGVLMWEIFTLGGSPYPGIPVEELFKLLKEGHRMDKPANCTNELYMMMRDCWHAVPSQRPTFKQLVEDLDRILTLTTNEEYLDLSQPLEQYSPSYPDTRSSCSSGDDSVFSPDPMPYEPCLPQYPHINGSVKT

Compound | Kd (FGFR1) | Kd (FGFR2) | Kd (FGFR3) | Kd (FGFR3 (V555M)) | IC50 [1] | IC50 [2] | IC50 [3] | IC50 [4]
C=CC(=O)Nc1ccc2c(c1)c(CC)cn2-c1nc(Nc2cnn(C)c2)ncc1C [Example 136, N-[3-ethyl-1-[5-methyl-2-[(1-methylpyrazol-4-yl)amino]pyrimidin-4-yl]indol-5-yl]prop-2-enamide] | 0.1 to 100 nM | 0.1 to 100 nM | 0.1 to 100 nM | 0.1 to 100 nM | 0.1 to 100 nM | 0.1 to 100 nM | 0.1 to 100 nM | –
C=CC(=O)Nc1ccc2c(-c3ccnc(Nc4cnn(C5CCC5)c4)n3)cn(C)c2c1 [Example 189, N-[3-[2-[(1-cyclobutylpyrazol-4-yl)amino]pyrimidin-4-yl]-1-methyl-indol-6-yl]prop-2-enamide] | 0.1 to 100 nM | 0.1 to 100 nM | 0.1 to 100 nM | 0.1 to 100 nM | 0.1 to 100 nM | 0.1 to 100 nM | – | –
C=CC(=O)Nc1ccc2c(c1)c(C)cn2-c1nc(Nc2cnn(C3CCN(C4COC4)CC3)c2)ncc1Cl [Example 34, N-[1-[5-Chloro-2-[[1-[1-(oxetan-3-yl)-4-piperidyl]pyrazol-4-yl]amino]pyrimidin-4-yl]-3-methyl-indol-5-yl]prop-2-enamide] | 0.1 to 100 nM | 0.1 to 100 nM | 0.1 to 100 nM | 0.1 to 100 nM | 0.1 to 100 nM | 0.1 to 100 nM | – | 0.1 to 100 nM
C=CC(=O)Nc1ccc2c(c1)c(C)cn2-c1nc(Nc2cn(C)cn2)ncc1Cl [Example 28, N-[1-[5-chloro-2-[(1-methylimidazol-4-yl)amino]pyrimidin-4-yl]-3-methyl-indol-5-yl]prop-2-enamide] | 0.1 to 100 nM | 0.1 to 100 nM | 0.1 to 100 nM | 0.1 to 100 nM | > 1000 nM | 0.1 to 100 nM | – | 0.1 to 100 nM
C=CC(=O)Nc1ccc2c(-c3ccnc(Nc4cnn(C(F)F)c4)n3)cn(C)c2c1 [Example 188, N-[3-[2-[[1-(difluoromethyl)pyrazol-4-yl]amino]pyrimidin-4-yl]-1-methyl-indol-6-yl]prop-2-enamide] | 0.1 to 100 nM | 0.1 to 100 nM | 0.1 to 100 nM | 0.1 to 100 nM | 0.1 to 100 nM | 0.1 to 100 nM | – | –
C=CC(=O)Nc1ccc2c(c1)c(C)cn2-c1nc(Nc2cnn(CCCO)c2)ncc1F [Example 160, N-[1-[5-fluoro-2-[[1-(3-hydroxypropyl)pyrazol-4-yl]amino]pyrimidin-4-yl]-3-methyl-indol-5-yl]prop-2-enamide] | 0.1 to 100 nM | 0.1 to 100 nM | 0.1 to 100 nM | 0.1 to 100 nM | 0.1 to 100 nM | 0.1 to 100 nM | 0.1 to 100 nM | –
C=CC(=O)Nc1ccc2c(c1)c(C)cn2-c1nc(Nc2cnn(CCO)c2)ncc1C [Example 121, N-[1-[2-[[1-(2-hydroxyethyl)pyrazol-4-yl]amino]-5-methyl-pyrimidin-4-yl]-3-methyl-indol-5-yl]prop-2-enamide] | 0.1 to 100 nM | 0.1 to 100 nM | 0.1 to 100 nM | 0.1 to 100 nM | 0.1 to 100 nM | 0.1 to 100 nM | 0.1 to 100 nM | –
C=CC(=O)Nc1ccc2c(c1)c(C)cn2-c1nc(Nc2cnn(C)c2)ncc1Cl [Example 25, N-[1-[5-chloro-2-[(1-methylpyrazol-4-yl)amino]pyrimidin-4-yl]-3-methyl-indol-5-yl]prop-2-enamide] | 0.1 to 100 nM | 0.1 to 100 nM | 0.1 to 100 nM | 0.1 to 100 nM | 0.1 to 100 nM | 0.1 to 100 nM | – | 0.1 to 100 nM
C=CC(=O)Nc1ccc2c(c1)c(C)cn2-c1nc(Nc2cnn(C3CCN(CC)CC3)c2)ncc1Cl [Example 42, N-[1-[5-chloro-2-[[1-(1-ethyl-4-piperidyl)pyrazol-4-yl]amino]-pyrimidin-4-yl]-3-methyl-indol-5-yl]prop-2-enamide] | 0.1 to 100 nM | 0.1 to 100 nM | 0.1 to 100 nM | 0.1 to 100 nM | 0.1 to 100 nM | 0.1 to 100 nM | – | 0.1 to 100 nM
C=CC(=O)Nc1ccc2c(c1)c(C)cn2-c1nc(Nc2ccc(N3CCOCC3)cc2)ncc1F [Example 67, N-[1-[5-Fluoro-2-(4-morpholino-anilino)pyrimidin-4-yl]-3-methyl-indol-5-yl]prop-2-enamide] | 0.1 to 100 nM | 0.1 to 100 nM | 0.1 to 100 nM | 0.1 to 100 nM | 0.1 to 100 nM | 0.1 to 100 nM | – | 0.1 to 100 nM
C=CC(=O)Nc1ccc2c(c1)c(C)cn2-c1nc(Nc2cnn(CC(C)(C)O)c2)ncc1F [Example 181, N-[1-[5-fluoro-2-[[1-(2-hydroxy-2-methyl-propyl)pyrazol-4-yl]amino]pyrimidin-4-yl]-3-methyl-indol-5-yl]prop-2-enamide] | 0.1 to 100 nM | 0.1 to 100 nM | 0.1 to 100 nM | 0.1 to 100 nM | 0.1 to 100 nM | 0.1 to 100 nM | 0.1 to 100 nM | –

Other lines, results leading:

Kd (FGFR1) | Kd (FGFR2) | Kd (FGFR3) | Kd (FGFR3 (V555M)) | IC50 [1] | IC50 [2] | IC50 [3] | IC50 [4] | Compound
0.1 to 100 nM | 0.1 to 100 nM | 0.1 to 100 nM | 0.1 to 100 nM | – | 0.1 to 100 nM | 0.1 to 100 nM | 0.1 to 100 nM | C=CC(=O)Nc1ccc2c(-c3ccnc(Nc4ccc(N5CCOCC5)cc4)n3)cn(C)c2c1 [Example 53, N-[1-Methyl-3-[2-(4-morpholino-anilino)pyrimidin-4-yl]indol-6-yl]prop-2-enamide]
0.1 to 100 nM | 0.1 to 100 nM | 0.1 to 100 nM | 0.1 to 100 nM | – | 0.1 to 100 nM | 0.1 to 100 nM | 0.1 to 100 nM | C=CC(=O)Nc1ccc2c(c1)c(C)cn2-c1nc(Nc2cnn(C)c2C)ncc1F [Example 146, N-[1-[2-[(1,5-dimethylpyrazol-4-yl)amino]-5-fluoro-pyrimidin-4-yl]-3-methyl-indol-5-yl]prop-2-enamide]
0.1 to 100 nM | 0.1 to 100 nM | 0.1 to 100 nM | 0.1 to 100 nM | 0.1 to 100 nM | 0.1 to 100 nM | – | 0.1 to 100 nM | C=CC(=O)Nc1ccc2c(c1)c(C)cn2-c1nc(Nc2cccc(OCCN3CCOCC3)c2)ncc1C [Example 9, N-[3-methyl-1-[5-methyl-2-[3-(2-morpholinoethoxy)anilino]pyrimidin-4-yl]indol-5-yl]prop-2-enamide]
0.1 to 100 nM | 0.1 to 100 nM | 0.1 to 100 nM | 0.1 to 100 nM | 0.1 to 100 nM | 0.1 to 100 nM | 0.1 to 100 nM | – | C=CC(=O)Nc1ccc2c(c1)c(C)cn2-c1nc(Nc2cn(C)nc2C)ncc1F [Example 167, N-[1-[2-[(1,3-Dimethylpyrazol-4-yl)amino]-5-fluoro-pyrimidin-4-yl]-3-methyl-indol-5-yl]prop-2-enamide]
100 to 250 nM | 0.1 to 100 nM | 0.1 to 100 nM | 0.1 to 100 nM | 0.1 to 100 nM | 0.1 to 100 nM | – | – | C=CC(=O)Nc1ccc2c(c1)c(C)cn2-c1nc(Nc2ccnn2C)ncc1F [Example 69, N-[1-[5-fluoro-2-[(2-methylpyrazol-3-yl)amino]pyrimidin-4-yl]-3-methyl-indol-5-yl]prop-2-enamide]
0.1 to 100 nM | 0.1 to 100 nM | 0.1 to 100 nM | 0.1 to 100 nM | 0.1 to 100 nM | 0.1 to 100 nM | 0.1 to 100 nM | – | C=CC(=O)Nc1ccc2c(c1)c(C)cn2-c1nc(Nc2cnn(CCOC)c2)ncc1F [Example 163, N-[1-[5-fluoro-2-[[1-(2-methoxyethyl)pyrazol-4-yl]amino]pyrimidin-4-yl]-3-methyl-indol-5-yl]prop-2-enamide]
0.1 to 100 nM | 0.1 to 100 nM | 0.1 to 100 nM | 0.1 to 100 nM | 100 to 250 nM | 0.1 to 100 nM | – | – | C=CC(=O)Nc1ccc2c(c1)c(C)cn2-c1nc(Nc2cn(C)cn2)ncc1C [Example 36, N-[3-methyl-1-[5-methyl-2-[(1-methylimidazol-4-yl)amino]pyrimidin-4-yl]indol-5-yl]prop-2-enamide]
